This passage reports IC50 results from BindingDB's records for doi:10.1016/j.bmcl.2007.02.059 (Johnson & Johnson Pharmaceutical Research & Development, 2007).

Assay [1] is described as follows: Inhibition of human Rsk3.
Assay [2] in a line: Inhibition of human Rsk2.

Structures are written as SMILES.

Usually IC50 stands for the concentration at which inhibition is half-maximal. High values mean weaker potency, low ones greater potency. With `CN(C)c1nc2ccc1CCCn1cc(c3ccccc31)C1=C(C(=O)NC1=O)c1cn(c3ccccc13)CC2`, the 50% inhibitory concentration (IC50) in assay [1] was 0.048 µM; in assay [2], 0.85 µM.
